Laboratory results: article PMC4234439 (Journal of Medicinal Chemistry, 2014)

Key:
[1] = plasma exposure in Swiss mice; assay type: in vivo, Swiss outbred mice; conditions: oral 10 mg/kg, PEG400 suspension, comparison in words
[2] = plasma protein binding by ultracentrifugation; assay type: in vitro ADME; conditions: 37 °C
[3] = human liver microsomal stability; assay type: in vitro ADME; conditions: liver microsomes, intrinsic clearance (CLint)
[4] = test system: P. falciparum strain TM90-C2B (chloroquine, mefloquine, pyrimethamine, and atovaquone resistant); assay: microbe, parasite or virus in culture; conditions: Plasmodium falciparum, TM90, read-out: EC50 (nM) TM90-C2B
P. berghei-GFP parasites = assay type: in vivo, Plasmodium berghei; conditions: for animals cured: Thompson test, 10 mg/kg, five mice per group

Question: For `COc1cc2[nH]c(C)c(-c3ccc(Oc4ccc(OC(F)(F)F)cc4)cc3F)c(=O)c2cc1Cl` [Compound 7], which plasma exposure [1] is on record?
Answer: highest exposure

Question: And the “binding to plasma proteins” value [2]?
Answer: > 99%

Question: Which microsomal CLint at 1 μM [3] does the source give for `COc1cc2[nH]c(C)c(-c3cccnc3)c(=O)c2cc1Cl` [Compound 20, 6-Chloro-7-methoxy-2-methyl-3-(pyridin-3-yl)quinolin-4(1H)-one] here?
Answer: < 15 µL/min/mg

Question: With `COc1cc2[nH]c(C)c(-c3ccncc3)c(=O)c2cc1Cl` [Compound 21, 6-Chloro-7-methoxy-2-methyl-3-(pyridin-4-yl)quinolin-4(1H)-one] as the compound, how does the microsomal CLint at 1 μM [3] read?
Answer: < 15 µL/min/mg

Question: With `COc1cc2[nH]c(C)c(-c3ccc(N4CCN(C)CC4)nc3)c(=O)c2cc1Cl` [Compound 24, 6-Chloro-7-methoxy-2-methyl-3-(6-(4-methylpiperazin-1-yl)pyridin-3-yl)quinolin-4(1H)-one] as the compound, how does the EC50 [4] read?
Answer: ≥ 536 nM

Question: Which EC50 [4] does the source give for `COc1cc2[nH]c(C)c(-c3cc4ccccc4s3)c(=O)c2cc1Cl` [Compound 30, 3-(Benzo[b]thiophen-2-yl)-6-chloro-7-methoxy-2-methylquinolin-4(1H)-one] here?
Answer: 24.8 to 138 nM

Question: Which microsomal CLint at 1 μM [3] does the source give for `COc1cc2[nH]c(C)c(-c3ccc(Oc4ccccc4)cc3)c(=O)c2cc1Cl` [Compound 46, 6-Chloro-7-methoxy-2-methyl-3-(4-phenoxyphenyl)quinolin-4(1H)-one] here?
Answer: 19 µL/min/mg

Question: Which plasma exposure [1] does the source give for `COc1cc2[nH]c(C)c(-c3ccc(C(F)(F)F)cc3)c(=O)c2cc1Cl` [Compound 52, 6-Chloro-7-methoxy-2-methyl-3-(4-(trifluoromethyl)phenyl)quinolin-4(1H)-one] here?
Answer: substantially lower

Question: With `COc1cc2[nH]c(C)c(-c3ccc(Oc4ccc(OC(F)(F)F)cc4)cc3C)c(=O)c2cc1Cl` [Compound 62, 6-Chloro-7-methoxy-2-methyl-3-(2-methyl-4-(4-(trifluoromethoxy)phenoxy)phenyl)-quinolin-4(1H)-one] as the compound, how does the animals cured (P. berghei-GFP parasites) read?
Answer: two out of five

Question: Which plasma exposure [1] does the source give for `COc1cc2[nH]c(C)c(-c3ccc(-c4ccc(C(F)(F)F)cc4F)nc3)c(=O)c2cc1Cl` [Compound 66, 6-Chloro-3-(6-(2-fluoro-4-(trifluoromethyl)phenyl)pyridin-3-yl)-7-methoxy-2-methylquinolin-4(1H)-one] here?
Answer: slightly lower exposure

Question: What does the source list for `COc1cc2[nH]c(C)c(-c3ccc(-c4ccc(OC(F)(F)F)cc4)nc3)c(=O)c2cc1Cl` [Compound 67, 6-Chloro-7-methoxy-2-methyl-3-(6-(4-(trifluoromethoxy)phenyl)pyridin-3-yl)quinolin-4(1H)-one]?
Answer: animals cured (P. berghei-GFP parasites): cured all the mice; plasma exposure [1]: slightly lower exposure

Question: Which “survival” value (P. berghei-GFP parasites; days survived beyond untreated control, 50 mg/kg p.o. days 3–5 PE) does the source give for `O=C1C(O)=C([C@H]2CC[C@H](c3ccc(Cl)cc3)CC2)C(=O)c2ccccc21` [atovaquone, reference compound] here?
Answer: 23 days
